# Measured values from ChEMBL document CHEMBL1275405, “Population pharmacokinetics of levofloxacin, gatifloxacin, and moxifloxacin in adults with pulmonary tuberculosis” (Antimicrob Agents Chemother, 2008).
# Tests used:
# [1] = Ratio of fAUC in tuberculosis patient at 1000 mg/day, po administered for 7 days to MIC for Mycobacterium tuberculosis; assay type: functional
# [2] = Clearance in tuberculosis patient at 1000 mg/day, po administered for 7 days measured after 24 hrs by HPLC; assay type: ADME, organism-based; details: human, in vivo
# clinical [3] = details: human, in vivo, po, 1000 mg/day
# Description: Cmax in tuberculosis patient at 1000 mg/day, po administered for 7 days by HPLC
# [4] = tested on: Mycobacterium tuberculosis; assay type: functional; details: 168 h
# [5] = tested on: Mycobacterium tuberculosis; test: microbe, parasite or virus in culture; details: 168 h
# Description: Antimicrobial activity against Mycobacterium tuberculosis infected in patient at 400 mg/day, po administered for 7 days by HPLC
# clinical [6] = details: human, in vivo, po, 400 mg/day
# Description: Tmax in tuberculosis patient at 400 mg/day, po administered for 7 days by HPLC
# [7] = Tmax in tuberculosis patient at […], po administered for 7 days by HPLC; assay type: ADME, organism-based; details: human, in vivo
Structure (SMILES),RatioAUC/MIC [1],CL/F [2] [mL/min],Cmax at 168 h (clinical [3]) [ng/mL],MIC [4] [µg/mL],MIC [5] [µg/mL],Tmax at 168 h (clinical [6]) [h],Tmax [7] [h]
C[C@H]1COc2c(N3CCN(C)CC3)c(F)cc3c(=O)c(C(=O)O)cn1c23.C[C@H]1COc2c(N3CCN(C)CC3)c(F)cc3c(=O)c(C(=O)O)cn1c23.O [LEVOFLOXACIN],187.67,79,9000,0.5,–,–,–
COc1c(N2C[C@@H]3CCCN[C@@H]3C2)c(F)cc2c(=O)c(C(=O)O)cn(C3CC3)c12 [MOXIFLOXACIN],–,–,–,–,0.5,2,–
COc1c(N2CCNC(C)C2)c(F)cc2c(=O)c(C(=O)O)cn(C3CC3)c12 (centres undefined) [GATIFLOXACIN],–,–,–,–,0.2,2,8
